Calls of active or inactive are those of the source. No cut-off for these calls is given here.

We go through one molecule from ChEMBL document CHEMBL4665719, “Development of SKI-349, a dual-targeted inhibitor of sphingosine kinase and microtubule polymerization” (Bioorg Med Chem Lett, 2020).

The target in series [1] is Cyclin-dependent kinase 1 (Homo sapiens) (UniProt P06493). The series is described as follows: Activation of CDK1 in human HL-60 cells assessed as activation of caspase 7 at 300 nM after 24 hrs in presence of Ro-3306 by Western blot analysis. The class given is cell-based.
Chain of Cyclin-dependent kinase 1 (Homo sapiens) (P06493 whole entry, looked up): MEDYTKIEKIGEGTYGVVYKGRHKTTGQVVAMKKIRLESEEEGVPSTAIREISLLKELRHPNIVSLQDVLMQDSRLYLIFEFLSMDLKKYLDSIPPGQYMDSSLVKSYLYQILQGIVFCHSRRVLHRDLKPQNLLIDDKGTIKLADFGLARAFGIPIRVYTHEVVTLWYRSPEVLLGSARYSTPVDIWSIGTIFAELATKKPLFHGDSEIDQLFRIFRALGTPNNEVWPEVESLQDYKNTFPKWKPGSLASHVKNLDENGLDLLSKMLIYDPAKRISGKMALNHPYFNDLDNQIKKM
A further series addresses T1, Sphingosine kinase 2 (Homo sapiens, UniProt Q9NRA0).
T1 sequence (Q9NRA0 whole entry): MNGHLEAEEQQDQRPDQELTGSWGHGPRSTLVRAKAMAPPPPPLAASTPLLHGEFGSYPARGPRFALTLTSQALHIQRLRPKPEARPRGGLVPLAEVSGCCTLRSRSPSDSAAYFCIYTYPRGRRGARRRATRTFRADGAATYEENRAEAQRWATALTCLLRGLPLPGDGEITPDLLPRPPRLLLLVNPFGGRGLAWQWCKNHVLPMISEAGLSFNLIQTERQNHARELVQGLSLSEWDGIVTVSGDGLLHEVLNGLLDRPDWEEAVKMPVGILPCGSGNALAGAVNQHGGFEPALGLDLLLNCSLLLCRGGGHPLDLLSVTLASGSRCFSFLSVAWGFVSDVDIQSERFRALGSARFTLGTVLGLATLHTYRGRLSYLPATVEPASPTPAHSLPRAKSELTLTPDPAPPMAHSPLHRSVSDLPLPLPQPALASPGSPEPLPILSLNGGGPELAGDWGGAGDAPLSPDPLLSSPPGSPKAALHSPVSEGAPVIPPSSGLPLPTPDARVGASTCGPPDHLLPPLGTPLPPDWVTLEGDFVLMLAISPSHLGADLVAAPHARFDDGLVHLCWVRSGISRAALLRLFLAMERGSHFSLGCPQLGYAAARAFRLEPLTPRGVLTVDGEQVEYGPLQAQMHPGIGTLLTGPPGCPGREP
The series is described as follows: Binding affinity to SphK2 in HEK293 cells assessed as direct target engagement incubated for 24 hrs followed by thermal denaturation at 61 degreeC by ITDRF-CETSA assay. The class given is cell-based.

Series [2] is described as follows: Toxicity in sub-lethal irradiated C57BL/6J mouse xenografted with […] MLL-AF9 cells assessed as HCT level at 1 mg/kg measured after 2 weeks (reference value: 45 +/- 1.4 %). It counts as organism-based. The settings on record: in vivo, 336 h.
For series [3], the target named is Glycogen synthase kinase-3 beta (Homo sapiens) (UniProt P49841). The series is described as follows: Inhibition of wild-type human full length GSK3B (M1 to T433 residues) expressed in mammalian expression system assessed as residual activity at 1 uM by Kinomescan method relative to control.
Chain of Glycogen synthase kinase-3 beta (Homo sapiens) (P49841 whole entry, looked up, the tested form may be a part): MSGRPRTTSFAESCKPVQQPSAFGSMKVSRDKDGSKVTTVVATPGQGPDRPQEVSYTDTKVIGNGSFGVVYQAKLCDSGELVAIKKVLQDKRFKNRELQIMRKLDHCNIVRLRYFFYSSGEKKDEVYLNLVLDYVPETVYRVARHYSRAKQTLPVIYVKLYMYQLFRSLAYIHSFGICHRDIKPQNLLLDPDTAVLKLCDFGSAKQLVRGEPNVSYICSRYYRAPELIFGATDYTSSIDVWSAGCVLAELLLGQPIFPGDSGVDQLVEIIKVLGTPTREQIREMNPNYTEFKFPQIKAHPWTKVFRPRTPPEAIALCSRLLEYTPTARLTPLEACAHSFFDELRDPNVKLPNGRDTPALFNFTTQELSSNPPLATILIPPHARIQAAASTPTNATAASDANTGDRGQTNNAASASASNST
For series [4], the target named is Cyclin-dependent kinase 1 (Homo sapiens) (UniProt P06493). Nature of the series: Activation of CDK1 in human HL60/VCR cells assessed as induction of Bcl2 phosphorylation at Ser70 residue at 300 nM after 24 hrs in presence of Ro-3306 by Western blot analysis. The class given is cell-based. A general note: Immunoblotting shows a protein as a band on a membrane.
In series [5] the target is T2, Sphingosine kinase 1 (Homo sapiens, UniProt Q9NYA1). Nature of the series: Binding affinity to SphK1 in HEK293 cells assessed as direct target engagement incubated for 24 hrs followed by thermal denaturation at 61 degreeC by ITDRF-CETSA assay. It counts as cell-based.
T2 sequence (Q9NYA1 whole entry): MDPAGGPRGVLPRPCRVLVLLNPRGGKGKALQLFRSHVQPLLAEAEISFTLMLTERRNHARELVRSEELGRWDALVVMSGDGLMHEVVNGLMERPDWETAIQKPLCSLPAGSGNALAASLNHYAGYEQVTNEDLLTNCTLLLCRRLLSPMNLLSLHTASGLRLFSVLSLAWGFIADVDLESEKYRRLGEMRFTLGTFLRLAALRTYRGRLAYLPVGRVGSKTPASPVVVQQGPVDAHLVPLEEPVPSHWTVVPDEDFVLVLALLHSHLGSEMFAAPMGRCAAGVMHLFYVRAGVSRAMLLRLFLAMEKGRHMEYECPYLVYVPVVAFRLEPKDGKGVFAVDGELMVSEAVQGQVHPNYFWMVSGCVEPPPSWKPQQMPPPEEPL
The target in series [6] is T3, Sphingosine kinase 1/2 (Homo sapiens) (UniProt Q9NRA0+Q9NYA1). Nature of the series: Inhibition of SPHK1/SPHK2 in human HL-60 cells assessed as C16:0 ceramide level assessed per 10^6 cells at 500 nM after 24 hrs by LC-ESI/MS analysis (reference value: 33.5 +/- 4.1 pmol). The class given is cell-based.
T3 sequence (Q9NYA1 whole entry, looked up, one chain of several, the tested form may be a part): as the sequence (Q9NYA1 whole entry) above
In series [7] the target is Non-receptor tyrosine-protein kinase TYK2 (Homo sapiens) (UniProt P29597). The series is described as follows: Inhibition of wild-type human partial length TYK2 JH2 pseudokinase domain (G556 to D888 residues) expressed in mammalian expression system assessed as residual activity at 1 uM by Kinomescan method relative to control.
Chain of Non-receptor tyrosine-protein kinase TYK2 (Homo sapiens) (P29597 whole entry, the tested form may be a part): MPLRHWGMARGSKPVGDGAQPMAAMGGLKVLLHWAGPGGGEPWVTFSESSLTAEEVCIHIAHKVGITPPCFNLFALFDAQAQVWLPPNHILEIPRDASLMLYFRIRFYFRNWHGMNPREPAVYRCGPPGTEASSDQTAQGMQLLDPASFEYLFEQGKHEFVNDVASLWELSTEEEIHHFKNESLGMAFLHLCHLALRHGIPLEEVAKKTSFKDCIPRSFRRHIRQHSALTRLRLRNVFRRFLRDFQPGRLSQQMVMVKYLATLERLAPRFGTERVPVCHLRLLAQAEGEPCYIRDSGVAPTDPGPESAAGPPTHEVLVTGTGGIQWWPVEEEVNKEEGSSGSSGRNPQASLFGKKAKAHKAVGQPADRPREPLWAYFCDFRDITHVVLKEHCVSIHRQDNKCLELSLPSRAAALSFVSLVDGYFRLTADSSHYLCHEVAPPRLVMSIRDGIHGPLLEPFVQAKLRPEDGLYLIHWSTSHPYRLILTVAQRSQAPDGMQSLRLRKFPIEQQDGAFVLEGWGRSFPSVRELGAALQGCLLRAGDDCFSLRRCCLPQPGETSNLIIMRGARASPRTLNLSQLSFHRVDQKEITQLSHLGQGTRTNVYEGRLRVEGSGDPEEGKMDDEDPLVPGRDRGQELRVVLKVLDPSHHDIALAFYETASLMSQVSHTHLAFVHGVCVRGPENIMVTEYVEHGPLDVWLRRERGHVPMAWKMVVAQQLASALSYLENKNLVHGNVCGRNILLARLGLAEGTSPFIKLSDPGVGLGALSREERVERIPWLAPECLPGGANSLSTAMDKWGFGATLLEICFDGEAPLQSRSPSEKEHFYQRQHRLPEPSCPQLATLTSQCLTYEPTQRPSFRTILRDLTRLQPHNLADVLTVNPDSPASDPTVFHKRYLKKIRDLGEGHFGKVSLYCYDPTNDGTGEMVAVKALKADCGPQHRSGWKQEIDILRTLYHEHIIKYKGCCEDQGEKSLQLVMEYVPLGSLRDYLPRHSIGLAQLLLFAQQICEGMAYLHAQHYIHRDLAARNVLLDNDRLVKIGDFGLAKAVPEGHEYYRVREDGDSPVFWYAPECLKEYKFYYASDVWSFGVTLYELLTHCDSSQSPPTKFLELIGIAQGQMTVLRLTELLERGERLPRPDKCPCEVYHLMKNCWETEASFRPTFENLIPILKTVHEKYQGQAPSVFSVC
The target of series [8] is T3, Sphingosine kinase 1/2 (Homo sapiens). The series is described as follows: Inhibition of SPHK1/SPHK2 in human HL-60 cells assessed as sphingosine-1-phosphate level assessed per 10^6 cells at 500 nM after 24 hrs by LC-ESI/MS analysis (reference value: 3.1 +/- 0.3 pmol). It counts as cell-based.
Series [9] in a line: Toxicity in sub-lethal irradiated C57BL/6J mouse xenografted with […] MLL-AF9 cells assessed as Hb level at 1 mg/kg measured after 2 weeks (reference value: 13.4 +/- 0.5 g/dl). The class given is organism-based. Particulars: in vivo, 336 h.
Series [10] is described as follows: Antitumor activity against human MLL-AF9 xenografted in sub-lethal irradiated C57BL/6J mouse assessed as increase in mouse survival at 1 mg/kg administered every day relative to control. The class given is functional. Particulars: MLL-AF9, light or radiation study.
The target in series [11] is T4, Sphingosine kinase 2 (Homo sapiens) (UniProt Q9NRA0).
T4 sequence (whole entry): T1 sequence (Q9NRA0 whole entry)
The series is described as follows: Binding affinity to SphK2 in HEK293 cells assessed as induction of thermal stabilization at 1 uM and 48.8 to 68.2 degreeC by CETSA-based Western blot analysis. The class given is cell-based.

Series [12] is described as follows: Effect on hematopoiesis in sub-lethal irradiated C57BL/6J mouse xenografted with […] MLL-AF9 cells assessed as CD45.1+/CD34 cells in spleen at 2.5 mg/kg measured after 6 weeks by flow cytometry analysis (reference value: 90 %). The class given is ADME, organism-based. Particulars: in vivo, 1008 h. On the technique in general: In xenograft studies the graft and the host belong to different species.

Series [13] concerns the target T2, Sphingosine kinase 1. Nature of the series: Inhibition of recombinant His6x-tagged human SphK1 expressed in HEK293 cells assessed as reduction in S1P formation using D-erythro-sphingosine as substrate by […].
Series [14] addresses T3, Sphingosine kinase 1/2 (Homo sapiens). The series is described as follows: Inhibition of SPHK1/SPHK2 in human HL-60 cells assessed as sphingosine level assessed per 10^6 cells at 500 nM after 24 hrs by LC-ESI/MS analysis (reference value: 18.3 +/- 3.5 pmol). It counts as cell-based.
The target in series [15] is Cyclin-dependent kinase 1 (Homo sapiens) (UniProt P06493). The series is described as follows: Activation of CDK1 in human HL60/VCR cells assessed as activation of caspase 7 at 300 nM after 24 hrs in presence of Ro-3306 by Western blot analysis. The class given is cell-based.
The nature of series [16]: Effect on hematopoiesis in sub-lethal irradiated C57BL/6J mouse xenografted with […] MLL-AF9 cells assessed as CD45.1+/CD34 cells in bone marrow at 5 mg/kg measured after 6 weeks by flow cytometry analysis (reference value: 93 %). It counts as ADME, organism-based. Particulars: in vivo, 1008 h.
Series [17] in a line: Effect on hematopoiesis in sub-lethal irradiated C57BL/6J mouse xenografted with […] MLL-AF9 cells assessed as CD45.1+/CD34 cells in bone marrow at 1 mg/kg measured after 6 weeks by flow cytometry analysis (reference value: 93 %). The class given is ADME, organism-based. The settings on record: in vivo, 1008 h.
The target in series [18] is Glycogen synthase kinase-3 alpha (Homo sapiens) (UniProt P49840). The series is described as follows: Inhibition of wild type full length human GSK3A (M1 to S483 residues) expressed in bacterial expression assessed as residual activity at 1 uM by Kinomescan method relative to control.
Chain of Glycogen synthase kinase-3 alpha (Homo sapiens) (P49840 2-483 limits assumed): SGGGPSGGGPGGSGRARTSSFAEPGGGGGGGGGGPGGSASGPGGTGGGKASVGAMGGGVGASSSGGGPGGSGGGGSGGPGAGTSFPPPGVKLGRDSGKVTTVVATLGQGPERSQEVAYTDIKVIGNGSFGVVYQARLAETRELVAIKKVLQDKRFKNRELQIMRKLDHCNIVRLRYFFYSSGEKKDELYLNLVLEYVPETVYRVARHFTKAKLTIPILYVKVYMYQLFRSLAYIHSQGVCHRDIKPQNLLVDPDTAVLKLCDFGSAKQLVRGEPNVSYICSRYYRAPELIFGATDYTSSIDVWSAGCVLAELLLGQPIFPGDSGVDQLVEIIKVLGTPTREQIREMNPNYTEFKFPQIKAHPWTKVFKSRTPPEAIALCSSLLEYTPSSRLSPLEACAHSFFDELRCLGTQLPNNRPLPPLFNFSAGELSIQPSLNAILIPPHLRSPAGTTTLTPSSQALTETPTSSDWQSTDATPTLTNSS
The nature of series [19]: Toxicity in sub-lethal irradiated C57BL/6J mouse xenografted with […] MLL-AF9 cells assessed as Hb level at 5 mg/kg measured after 2 weeks (reference value: 13.4 +/- 0.5 g/dl). Particulars: in vivo, 336 h. It counts as organism-based.
The target of series [20] is T2, Sphingosine kinase 1. The series is described as follows: Binding affinity to SphK1 in HEK293 cells assessed as induction of thermal stabilization at 1 uM and 51 to 63.2 degreeC by CETSA-based Western blot analysis. The class given is cell-based.
The nature of series [21]: Toxicity in sub-lethal irradiated C57BL/6J mouse xenografted with […] MLL-AF9 cells assessed as WBC level at 1 mg/kg measured after 2 weeks (reference value: 6.5 +/- 0.4 10^3/ml). It counts as organism-based. The settings on record: in vivo, 336 h.

On to `COc1ccc(Nc2nc(N)c(C(=O)c3ccc(OC)c(OC)c3)s2)cc1`, for which the result in [1], in series [4] and in series [15] was inactive. In addition, the results for the IC50 on Sphingosine kinase 2, on Sphingosine kinase 1 [5] and on Sphingosine kinase 1 [13] were 60 nM, 60 nM and 30000 nM, respectively. Besides, the Activity in [2] turned out to be 44%; in series [3], 27%; in series [6], 87 pmol; in series [7], 14%; in series [8] it was 2.3 pmol; in [9], 12.8 g/dL. Also, the Activity in series [12] was 6%; in series [14] it was 27 pmol; in series [16], 7%; in series [17] it was 1%; in [18], 2.5%; in series [19] it was 12 g/dL. In addition, the Activity in [21] is recorded as 8.7 10^3/ml. The survival at 1 mg/kg in series [10] amounted to 100%. Also, the result (in [11]; on Sphingosine kinase 1 [20]) was Active.
